Test [1] relates to Mus musculus. Briefly: Percentage increase in seizure threshold at dose of 10 mg/kg in mouse maximal electroshock seizure threshold (MEST) model after po administration. It counts as functional. On the technique in general: Protection in the maximal electroshock model is a classic sign of anticonvulsant action.
Test [2] concerns the target SB-204269 binding site. In words: Inhibition of [3H]-SB 204269 binding to rat forebrain membranes. It counts as cell membranes, Membrane.
The test system of test [3] is Mus musculus. In words: Percentage increase in seizure threshold at dose of 3 mg/kg in mouse maximal electroshock seizure threshold (MEST) model after po administration.

Turning to `CC1(C)Oc2ccc(C(F)(F)C(F)(F)F)cc2[C@H](NC(=O)c2ccc(F)cc2)[C@H]1O`, the Increase in test [1] is -8%. Moreover, the “Log Ki” value in test [2] was -6.35.

As for `CC1(C)Oc2ccc(C(=O)c3ccccc3)cc2C(NC(=O)c2ccc(F)cc2)C1O` (stereo not drawn), the “Log Ki” value in test [2] was -6.12.

Turning to `CC1(C)Oc2ccc(S(=O)(=O)c3ccccc3)cc2C(NC(=O)c2ccc(F)cc2)C1O` (stereo not drawn), the Increase in test [1] was -7%. Further, the “Log Ki” value in test [2] is on record as -5.84.

For the molecule `COC(=O)c1ccc2c(c1)C(NC(=O)c1ccc(F)cc1)C(O)C(C)(C)O2` (stereo not drawn), the Increase in test [1] turned out to be 59%. Further, the “Log Ki” value in test [2] is -6.69.

In the case of `CC(=O)c1cccc2c1C(NC(=O)c1ccc(F)cc1)C(O)C(C)(C)O2` (stereo not drawn), in test [2], the “Log Ki” value is listed as -5.09.

As to `CC(=O)c1cccc2c1OC(C)(C)C(O)C2NC(=O)c1ccc(F)cc1` (stereo not drawn), the Increase in test [1] came out at 5%. For the same molecule, the “Log Ki” value in test [2] was -5.

`CC1(C)Oc2ccc(F)cc2C(NC(=O)c2ccc(F)cc2)C1O` (stereo not drawn): the Increase in test [1] is listed as 10%. In addition, the “Log Ki” value in test [2] was -5.38.

Take `CC(=O)c1ccc2c(c1)[C@H](NC(=O)c1ccccc1Cl)[C@@H](O)C(C)(C)O2`: in test [3], the Increase stood at 94%. The “Log Ki” value in test [2] is -7.65.

On to `CC(=O)c1ccc2c(c1)C(NC(=O)c1ccc(Cl)cc1)C(O)C(C)(C)O2` (stereo not drawn), for which the Increase in test [1] was 55%. In addition, in test [2], the “Log Ki” value is on record as -7.16.

Take `CC(=O)c1ccc2c(c1)[C@H](NC(=O)c1cccc(I)c1)[C@@H](O)C(C)(C)O2`: the Increase in test [1] worked out at 51%. Also, the “Log Ki” value in test [2] is reported as -8.28.

With `CCC(=O)c1ccc2c(c1)C(NC(=O)c1ccc(F)cc1)C(O)C(C)(C)O2` (stereo not drawn), the Increase in test [1] amounted to 35%. Further, in test [2], the “Log Ki” value is recorded as -6.8.

On to `CC(=O)c1ccc2c(c1)[C@H](NC(=O)c1cccc(Cl)c1)[C@@H](O)C(C)(C)O2`, for which the Increase is 78% in test [3] and 90% in test [1]. Also, the “Log Ki” value in test [2] is listed as -8.04.

In the case of `CC1(C)Oc2ccc(C#N)cc2[C@H](NC(=O)c2ccc(F)cc2)[C@H]1O`, the Increase in test [3] came to 15%; in test [1] it was 41%. In addition, the “Log Ki” value in test [2] is given as -6.

As for `Cc1ccc2c(c1)C(NC(=O)c1ccc(F)cc1)C(O)C(C)(C)O2` (stereo not drawn), the Increase in test [1] was 5%. Further, the “Log Ki” value in test [2] is -5.3.

With `CC1(C)Oc2ccc([N+](=O)[O-])cc2C(NC(=O)c2ccc(F)cc2)C1O` (stereo not drawn), the Increase in test [3] stood at 2%; in test [1], 45%. The “Log Ki” value in test [2] is -6.2.

As to `CC(=O)c1ccc2c(c1)[C@H](NC(=O)c1ccc(F)cc1)[C@@H](O)C(C)(C)O2` [CARABERSAT], the figures for the Increase in test [3] and in test [1] were 89% and 102%, respectively. For the same molecule, in test [2], the “Log Ki” value was -7.32.

As for `CC(=O)c1ccc2c(c1)[C@H](NC(=O)c1ccccc1)[C@@H](O)C(C)(C)O2`, the Increase was determined as 65% in test [3] and 110% in test [1]. Moreover, the “Log Ki” value in test [2] is -7.3.

For the molecule `CC1(C)Oc2ccc(C(N)=O)cc2C(NC(=O)c2ccc(F)cc2)C1O` (stereo not drawn), in test [1], the Increase amounted to 6%. The “Log Ki” value in test [2] is -6.06.

Regarding `CC(=O)c1ccc2c(c1)[C@@H](NC(=O)c1ccc(F)cc1)[C@H](O)C(C)(C)O2`, in test [1], the Increase is given as 8%. Also, the “Log Ki” value in test [2] is under -4.5.

Regarding `CC(=O)c1ccc2c(c1)OC(C)(C)C(O)C2NC(=O)c1ccc(F)cc1` (stereo not drawn), in test [2], the “Log Ki” value is recorded as -5.51.

`CC(=O)c1ccc2c(c1)C(NC(=O)C1CCCCC1)C(O)C(C)(C)O2` (stereo not drawn): in test [2], the “Log Ki” value is given as -5.9.

For the origin of these results see ChEMBL document CHEMBL1129393, “Synthesis of novel trans-4-(substituted-benzamido)-3,4-dihydro-2H-benzo[b]-pyran-3-ol derivatives as potential anticonvulsant agents with a distinctive binding profile” (J Med Chem, 1996).
